What was measured:
Assay in all cases: KinaseProfiler Assay
ALK4(h) = target: T1, ALK4(h) (Homo sapiens, UniProt P36896)
T1 sequence (P36896 24-505): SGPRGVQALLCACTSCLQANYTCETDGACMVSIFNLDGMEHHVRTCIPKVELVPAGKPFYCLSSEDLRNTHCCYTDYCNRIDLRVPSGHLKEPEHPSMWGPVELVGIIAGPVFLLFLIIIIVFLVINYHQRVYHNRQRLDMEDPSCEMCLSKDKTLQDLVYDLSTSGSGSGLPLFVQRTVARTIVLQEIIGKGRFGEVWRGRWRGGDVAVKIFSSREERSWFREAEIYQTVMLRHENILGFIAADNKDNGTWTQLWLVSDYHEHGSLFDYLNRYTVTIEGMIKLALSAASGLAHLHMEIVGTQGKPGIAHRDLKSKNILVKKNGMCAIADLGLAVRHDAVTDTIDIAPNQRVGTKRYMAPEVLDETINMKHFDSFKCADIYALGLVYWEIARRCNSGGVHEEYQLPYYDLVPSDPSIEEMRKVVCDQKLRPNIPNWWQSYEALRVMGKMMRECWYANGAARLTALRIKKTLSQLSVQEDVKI

Arg(h) = Arg(h) (Homo sapiens, UniProt P42684)
Arg(h), sequence (P42684 whole entry): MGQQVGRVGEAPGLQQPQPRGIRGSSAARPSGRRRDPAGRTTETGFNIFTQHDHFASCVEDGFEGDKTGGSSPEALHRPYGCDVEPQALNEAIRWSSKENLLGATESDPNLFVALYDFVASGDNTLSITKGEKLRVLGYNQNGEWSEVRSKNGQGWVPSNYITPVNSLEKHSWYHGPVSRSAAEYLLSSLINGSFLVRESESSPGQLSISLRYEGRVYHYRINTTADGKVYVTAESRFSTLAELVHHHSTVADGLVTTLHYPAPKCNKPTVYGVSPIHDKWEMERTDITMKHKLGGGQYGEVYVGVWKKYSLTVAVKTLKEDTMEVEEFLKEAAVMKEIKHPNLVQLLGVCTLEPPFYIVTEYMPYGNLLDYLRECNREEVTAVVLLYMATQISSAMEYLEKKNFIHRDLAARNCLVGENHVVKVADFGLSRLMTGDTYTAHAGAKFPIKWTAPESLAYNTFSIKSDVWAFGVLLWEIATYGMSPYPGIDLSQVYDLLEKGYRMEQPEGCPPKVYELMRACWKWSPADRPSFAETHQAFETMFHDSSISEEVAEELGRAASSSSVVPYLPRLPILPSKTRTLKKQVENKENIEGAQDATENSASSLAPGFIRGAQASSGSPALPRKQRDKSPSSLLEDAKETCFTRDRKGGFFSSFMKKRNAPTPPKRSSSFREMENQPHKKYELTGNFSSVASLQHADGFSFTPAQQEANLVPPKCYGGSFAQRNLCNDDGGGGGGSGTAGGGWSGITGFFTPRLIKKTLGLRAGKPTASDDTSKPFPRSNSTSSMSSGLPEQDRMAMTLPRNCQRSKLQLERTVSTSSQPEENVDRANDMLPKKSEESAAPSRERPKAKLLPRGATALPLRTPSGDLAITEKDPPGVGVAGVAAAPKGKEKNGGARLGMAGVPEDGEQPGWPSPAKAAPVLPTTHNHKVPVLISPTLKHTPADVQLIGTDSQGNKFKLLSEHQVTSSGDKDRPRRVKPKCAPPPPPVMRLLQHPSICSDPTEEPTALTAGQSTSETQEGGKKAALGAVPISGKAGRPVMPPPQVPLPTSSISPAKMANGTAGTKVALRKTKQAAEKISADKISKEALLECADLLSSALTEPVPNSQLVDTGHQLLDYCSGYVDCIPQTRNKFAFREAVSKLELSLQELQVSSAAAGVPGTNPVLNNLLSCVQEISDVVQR

CaMKIIγ(h) = CaMKIIγ(h) (Homo sapiens, UniProt Q13555)
CaMKIIγ(h), sequence (Q13555 whole entry): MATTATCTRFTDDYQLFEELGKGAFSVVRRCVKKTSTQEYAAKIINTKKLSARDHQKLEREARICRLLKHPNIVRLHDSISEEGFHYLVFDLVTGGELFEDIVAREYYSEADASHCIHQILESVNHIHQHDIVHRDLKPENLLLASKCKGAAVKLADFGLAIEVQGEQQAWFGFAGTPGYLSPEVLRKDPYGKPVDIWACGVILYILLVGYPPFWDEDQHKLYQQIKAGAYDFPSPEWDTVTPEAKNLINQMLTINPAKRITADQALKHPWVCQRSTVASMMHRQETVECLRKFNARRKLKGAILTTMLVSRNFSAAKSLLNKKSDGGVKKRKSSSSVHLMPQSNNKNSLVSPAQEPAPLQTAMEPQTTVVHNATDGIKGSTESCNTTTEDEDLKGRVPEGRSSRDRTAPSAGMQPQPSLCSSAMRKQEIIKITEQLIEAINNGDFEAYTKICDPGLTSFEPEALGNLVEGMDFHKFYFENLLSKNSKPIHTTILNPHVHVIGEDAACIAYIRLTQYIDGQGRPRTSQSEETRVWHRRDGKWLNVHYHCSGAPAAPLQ

EphB3(h) = target: T2, EphB3(h) (Homo sapiens, UniProt P54753)
T2 sequence (P54753 34-998): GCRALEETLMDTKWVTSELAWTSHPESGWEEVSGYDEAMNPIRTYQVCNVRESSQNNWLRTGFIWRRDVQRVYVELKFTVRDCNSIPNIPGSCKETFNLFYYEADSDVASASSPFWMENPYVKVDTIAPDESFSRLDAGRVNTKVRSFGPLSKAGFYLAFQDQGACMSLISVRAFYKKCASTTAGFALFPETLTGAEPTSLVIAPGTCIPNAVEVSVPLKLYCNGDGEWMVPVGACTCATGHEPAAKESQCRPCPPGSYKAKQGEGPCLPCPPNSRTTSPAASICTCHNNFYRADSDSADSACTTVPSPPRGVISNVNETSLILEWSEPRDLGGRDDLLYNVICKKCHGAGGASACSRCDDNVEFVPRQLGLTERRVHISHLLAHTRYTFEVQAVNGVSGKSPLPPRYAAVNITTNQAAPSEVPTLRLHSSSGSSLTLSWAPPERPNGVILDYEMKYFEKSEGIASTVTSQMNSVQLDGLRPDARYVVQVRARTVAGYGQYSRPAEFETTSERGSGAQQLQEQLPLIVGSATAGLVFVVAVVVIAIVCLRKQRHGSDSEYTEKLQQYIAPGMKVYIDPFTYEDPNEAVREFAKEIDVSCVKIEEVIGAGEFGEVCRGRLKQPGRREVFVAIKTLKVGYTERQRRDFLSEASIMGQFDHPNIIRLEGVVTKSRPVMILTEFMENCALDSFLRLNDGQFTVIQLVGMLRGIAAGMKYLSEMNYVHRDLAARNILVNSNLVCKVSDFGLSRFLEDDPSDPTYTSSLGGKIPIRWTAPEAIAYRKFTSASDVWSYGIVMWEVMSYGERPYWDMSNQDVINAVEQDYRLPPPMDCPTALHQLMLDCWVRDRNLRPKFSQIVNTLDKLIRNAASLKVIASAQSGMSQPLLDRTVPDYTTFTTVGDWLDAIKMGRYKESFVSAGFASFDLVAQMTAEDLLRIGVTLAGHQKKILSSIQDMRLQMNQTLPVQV

Flt4(h) = Flt4(h) (Homo sapiens, UniProt P35916)
Flt4(h), sequence (P35916 25-1363): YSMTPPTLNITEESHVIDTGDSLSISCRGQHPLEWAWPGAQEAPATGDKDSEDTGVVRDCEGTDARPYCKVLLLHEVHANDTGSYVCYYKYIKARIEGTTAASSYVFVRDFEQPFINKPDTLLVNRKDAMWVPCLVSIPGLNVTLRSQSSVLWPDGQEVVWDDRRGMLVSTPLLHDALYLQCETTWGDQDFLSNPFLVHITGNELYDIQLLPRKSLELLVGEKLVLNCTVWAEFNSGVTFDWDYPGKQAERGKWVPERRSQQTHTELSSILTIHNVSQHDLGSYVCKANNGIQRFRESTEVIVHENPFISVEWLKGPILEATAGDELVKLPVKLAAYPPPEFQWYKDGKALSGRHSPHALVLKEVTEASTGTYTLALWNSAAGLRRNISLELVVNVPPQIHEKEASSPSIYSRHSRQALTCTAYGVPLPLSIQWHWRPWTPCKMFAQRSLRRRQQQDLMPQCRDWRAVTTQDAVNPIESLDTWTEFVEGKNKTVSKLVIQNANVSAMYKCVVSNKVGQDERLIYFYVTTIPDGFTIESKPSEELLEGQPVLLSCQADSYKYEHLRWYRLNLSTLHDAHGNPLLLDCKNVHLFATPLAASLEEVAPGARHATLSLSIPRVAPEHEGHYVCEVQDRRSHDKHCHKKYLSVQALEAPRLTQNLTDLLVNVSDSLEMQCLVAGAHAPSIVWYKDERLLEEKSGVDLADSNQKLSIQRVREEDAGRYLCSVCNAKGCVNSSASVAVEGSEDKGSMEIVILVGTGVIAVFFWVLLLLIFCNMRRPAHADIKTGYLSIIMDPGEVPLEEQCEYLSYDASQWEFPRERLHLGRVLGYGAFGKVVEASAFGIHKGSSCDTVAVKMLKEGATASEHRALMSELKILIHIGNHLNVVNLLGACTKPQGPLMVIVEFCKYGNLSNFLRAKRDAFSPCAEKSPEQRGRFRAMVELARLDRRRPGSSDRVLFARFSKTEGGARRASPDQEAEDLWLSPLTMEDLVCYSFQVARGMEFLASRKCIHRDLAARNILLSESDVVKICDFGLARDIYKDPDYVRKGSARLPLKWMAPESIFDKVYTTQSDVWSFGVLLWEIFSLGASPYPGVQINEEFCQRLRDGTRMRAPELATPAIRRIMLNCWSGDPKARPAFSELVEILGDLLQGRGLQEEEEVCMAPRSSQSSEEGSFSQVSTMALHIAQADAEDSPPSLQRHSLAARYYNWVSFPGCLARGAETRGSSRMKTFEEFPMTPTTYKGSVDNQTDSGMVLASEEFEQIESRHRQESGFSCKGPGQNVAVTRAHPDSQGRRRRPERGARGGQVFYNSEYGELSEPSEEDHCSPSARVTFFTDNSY

PAK5(h) = PAK5(h) (Homo sapiens, UniProt Q9P286)
PAK5(h), sequence (Q9P286 whole entry): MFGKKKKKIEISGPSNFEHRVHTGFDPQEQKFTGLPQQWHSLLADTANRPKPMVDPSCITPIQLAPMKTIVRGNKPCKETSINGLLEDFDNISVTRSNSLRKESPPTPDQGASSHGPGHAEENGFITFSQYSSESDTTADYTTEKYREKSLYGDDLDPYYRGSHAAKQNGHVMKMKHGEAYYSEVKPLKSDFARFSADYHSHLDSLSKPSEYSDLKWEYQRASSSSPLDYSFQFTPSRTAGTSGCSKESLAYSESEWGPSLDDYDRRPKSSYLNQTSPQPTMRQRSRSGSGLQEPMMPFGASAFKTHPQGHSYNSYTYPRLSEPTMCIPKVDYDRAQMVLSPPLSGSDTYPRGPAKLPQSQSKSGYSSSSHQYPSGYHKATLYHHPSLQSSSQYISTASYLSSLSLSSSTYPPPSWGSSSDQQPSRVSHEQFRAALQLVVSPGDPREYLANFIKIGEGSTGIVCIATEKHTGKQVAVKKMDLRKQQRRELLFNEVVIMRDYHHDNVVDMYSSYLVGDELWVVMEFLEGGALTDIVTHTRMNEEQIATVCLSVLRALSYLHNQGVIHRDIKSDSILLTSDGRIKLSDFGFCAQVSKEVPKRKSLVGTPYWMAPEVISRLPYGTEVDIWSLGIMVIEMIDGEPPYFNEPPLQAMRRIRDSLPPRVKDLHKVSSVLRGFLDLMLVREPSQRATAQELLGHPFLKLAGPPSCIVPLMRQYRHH

SAPK2b(h) = SAPK2b(h) (Homo sapiens, UniProt Q15759)
SAPK2b(h), sequence (Q15759 whole entry): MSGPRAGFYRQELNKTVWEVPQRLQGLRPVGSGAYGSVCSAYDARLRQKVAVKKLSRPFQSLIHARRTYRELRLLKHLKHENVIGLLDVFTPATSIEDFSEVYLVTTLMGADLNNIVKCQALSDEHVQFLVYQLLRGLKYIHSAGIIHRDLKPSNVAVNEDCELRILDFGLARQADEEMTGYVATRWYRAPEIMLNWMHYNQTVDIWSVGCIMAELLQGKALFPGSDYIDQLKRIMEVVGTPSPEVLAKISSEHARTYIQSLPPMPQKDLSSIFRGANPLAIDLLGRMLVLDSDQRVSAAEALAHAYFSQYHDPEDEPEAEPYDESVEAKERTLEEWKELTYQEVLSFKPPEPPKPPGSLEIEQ

SAPK3(h) = target: T3, SAPK3(h) (Homo sapiens, UniProt P53778)
T3 sequence (P53778 1-367): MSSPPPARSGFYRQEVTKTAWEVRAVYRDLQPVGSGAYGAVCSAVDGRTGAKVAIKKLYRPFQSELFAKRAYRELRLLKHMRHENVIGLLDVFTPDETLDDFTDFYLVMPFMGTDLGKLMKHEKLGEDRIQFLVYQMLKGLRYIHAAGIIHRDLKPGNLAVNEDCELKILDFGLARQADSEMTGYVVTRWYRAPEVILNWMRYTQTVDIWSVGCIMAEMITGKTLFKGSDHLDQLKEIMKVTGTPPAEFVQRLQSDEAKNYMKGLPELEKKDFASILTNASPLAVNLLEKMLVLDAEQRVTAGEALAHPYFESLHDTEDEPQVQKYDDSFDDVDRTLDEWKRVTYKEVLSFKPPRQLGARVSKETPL

Compound: CC(C)CCC(=O)[C@]1(O)C(O)=C(C(=O)C(C)C)C(=O)[C@H]1CCC(C)C [TH2, tetrahydroiso-cohumulone]
- kinase inhibition (ALK4(h); 1 μg/ml): 109% of control
- kinase inhibition (ALK4(h); 5 μg/ml): 104% of control
- kinase inhibition (ALK4(h); 25 μg/ml): 97% of control
- kinase inhibition (ALK4(h); 50 μg/ml): 83% of control
- kinase inhibition (ALK4(h); 100 μg/ml): 63% of control
- kinase inhibition (Arg(h); 1 μg/ml): 92% of control
- kinase inhibition (Arg(h); 5 μg/ml): 92% of control
- kinase inhibition (Arg(h); 25 μg/ml): 69% of control
- kinase inhibition (Arg(h); 50 μg/ml): 53% of control
- kinase inhibition (Arg(h); 100 μg/ml): 43% of control
- kinase inhibition (CaMKIIγ(h); 1 μg/ml): 109% of control
- kinase inhibition (CaMKIIγ(h); 5 μg/ml): 109% of control
- kinase inhibition (CaMKIIγ(h); 25 μg/ml): 131% of control
- kinase inhibition (CaMKIIγ(h); 50 μg/ml): 108% of control
- kinase inhibition (CaMKIIγ(h); 100 μg/ml): 101% of control
- kinase inhibition (EphB3(h); 1 μg/ml): 80% of control
- kinase inhibition (EphB3(h); 5 μg/ml): 71% of control
- kinase inhibition (EphB3(h); 25 μg/ml): 69% of control
- kinase inhibition (EphB3(h); 50 μg/ml): 62% of control
- kinase inhibition (EphB3(h); 100 μg/ml): 57% of control
- kinase inhibition (Flt4(h); 1 μg/ml): 117% of control
- kinase inhibition (Flt4(h); 5 μg/ml): 113% of control
- kinase inhibition (Flt4(h); 25 μg/ml): 88% of control
- kinase inhibition (Flt4(h); 50 μg/ml): 80% of control
- kinase inhibition (Flt4(h); 100 μg/ml): 55% of control
- kinase inhibition (PAK5(h); 1 μg/ml): 106% of control
- kinase inhibition (PAK5(h); 5 μg/ml): 105% of control
- kinase inhibition (PAK5(h); 25 μg/ml): 91% of control
- kinase inhibition (PAK5(h); 50 μg/ml): 93% of control
- kinase inhibition (PAK5(h); 100 μg/ml): 61% of control
- kinase inhibition (SAPK2b(h); 1 μg/ml): 117% of control
- kinase inhibition (SAPK2b(h); 5 μg/ml): 110% of control
- kinase inhibition (SAPK2b(h); 25 μg/ml): 108% of control
- kinase inhibition (SAPK2b(h); 50 μg/ml): 108% of control
- kinase inhibition (SAPK2b(h); 100 μg/ml): 111% of control
- kinase inhibition (SAPK3(h); 1 μg/ml): 109% of control
- kinase inhibition (SAPK3(h); 5 μg/ml): 99% of control
- kinase inhibition (SAPK3(h); 25 μg/ml): 114% of control
- kinase inhibition (SAPK3(h); 50 μg/ml): 122% of control
- kinase inhibition (SAPK3(h); 100 μg/ml): 106% of control

Reference: patent publication US20100137449A1, “SUBSTITUTED 1,3-CYCLOPENTADIONE MULTI-TARGET PROTEIN KINASE MODULATORS OF CANCER, ANGIOGENESIS AND THE INFLAMMATORY PATHWAYS ASSOCIATED THEREWITH” (METAPROTEOMICS, LLC, priority 2007, published 2010)
